Our source for the EC50 values is patent US20070190523A1 (priority 2002, published 2007).

In this experiment the test system is WT. Also noted: species or system HIV-1. To be noted: read-out: Cell-based assay (MT-4) EC50/nM WT.

Turning to `O=C1N(Cc2ccccc2)C(Cc2ccccc2)C(O)C(O)C(Cc2ccc(O)cc2)N1Cc1ccccc1` (stereo not shown) [H / Ph / OH], the EC50 came to 1260 nM.
